In ChEMBL document CHEMBL4130350, “Discovery, mechanism and metabolism studies of 2,3-difluorophenyl-linker-containing PARP1 inhibitors with enhanced in vivo efficacy for cancer therapy” (Eur J Med Chem, 2017):
Activity calls are given as the source filed them. The calls are words filed in the database; no cut-off is given here.

Columns and labels:
MDA-MB-436 [1] = experiment: Antiproliferative activity against human MDA-MB-436 cells after 7 days by CCK8 or SRB assay; format: functional, cell-based; conditions: MDA-MB-436, 168 h
CAPAN-1 [2] = experiment: Cell cycle arrest in human Capan1 cells assessed as accumulation at G2/M phase at 1 uM after 72 hrs by propidium iodide-staining based flow cytometry (reference value: 15.26%); format: functional
CAPAN-1 [3] = experiment: Cell cycle arrest in human Capan1 cells assessed as accumulation at G2/M phase at 10 uM after 72 hrs by propidium iodide-staining based flow cytometry (reference value: 15.26%); format: functional
CAPAN-1 [4] = experiment: Cell cycle arrest in human Capan1 cells after 72 hrs by propidium iodide-staining based flow cytometry; format: functional
[5] = biological target: T1, Poly [ADP-ribose] polymerase 1 (Homo sapiens, UniProt P09874); experiment: Inhibition of PARP1 in human Capan1 cells assessed as increase in phosphorylated chk1 protein levels at 0.1 to 1 uM after 48 hrs by Western blot analysis; format: cell-based
T1 sequence (P09874 whole entry): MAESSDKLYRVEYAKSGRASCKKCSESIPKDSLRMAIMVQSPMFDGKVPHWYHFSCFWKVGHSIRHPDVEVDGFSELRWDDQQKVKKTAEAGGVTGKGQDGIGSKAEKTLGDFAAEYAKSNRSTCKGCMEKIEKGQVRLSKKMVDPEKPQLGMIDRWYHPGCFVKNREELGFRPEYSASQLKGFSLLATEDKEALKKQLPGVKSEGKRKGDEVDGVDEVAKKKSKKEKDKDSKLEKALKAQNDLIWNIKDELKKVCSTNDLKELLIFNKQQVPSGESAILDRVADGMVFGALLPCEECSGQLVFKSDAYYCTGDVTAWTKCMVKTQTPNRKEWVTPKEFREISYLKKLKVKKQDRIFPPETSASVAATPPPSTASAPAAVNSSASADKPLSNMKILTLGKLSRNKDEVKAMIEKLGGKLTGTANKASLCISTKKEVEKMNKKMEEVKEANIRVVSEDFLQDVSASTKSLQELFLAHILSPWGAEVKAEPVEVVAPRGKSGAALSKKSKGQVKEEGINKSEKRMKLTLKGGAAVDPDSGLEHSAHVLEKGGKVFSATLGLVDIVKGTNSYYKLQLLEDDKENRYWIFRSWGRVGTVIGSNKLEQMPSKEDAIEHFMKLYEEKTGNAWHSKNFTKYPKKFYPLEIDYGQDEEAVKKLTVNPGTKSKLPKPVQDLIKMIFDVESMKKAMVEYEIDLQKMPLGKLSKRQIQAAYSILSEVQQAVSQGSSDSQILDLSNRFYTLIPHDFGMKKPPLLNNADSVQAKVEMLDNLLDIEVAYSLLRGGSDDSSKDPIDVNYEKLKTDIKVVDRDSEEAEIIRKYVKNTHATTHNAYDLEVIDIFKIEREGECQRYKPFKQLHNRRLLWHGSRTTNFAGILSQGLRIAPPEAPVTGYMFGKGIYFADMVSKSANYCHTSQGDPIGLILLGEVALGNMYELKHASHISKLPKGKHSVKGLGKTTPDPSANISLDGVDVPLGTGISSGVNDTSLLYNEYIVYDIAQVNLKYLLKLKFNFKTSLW

[6] = biological target: T1, Poly [ADP-ribose] polymerase 1; experiment: Inhibition of PARP1 in human Capan1 cells assessed as increase in phosphorylated ATM protein levels at 0.1 to 1 uM after 48 hrs by Western blot analysis; format: cell-based
MDA-MB-436 [7] = experiment: Induction of apoptosis in human MDA-MB-436 cells assessed as early apoptotic cells at 0.1 uM after 96 hrs by Annexin V-FITC/propidium iodide double-staining based flow cytometery (reference value: 1.90%); format: functional
MDA-MB-436 [8] = experiment: Induction of apoptosis in human MDA-MB-436 cells assessed as late apoptotic cells at 0.1 uM after 96 hrs by Annexin V-FITC/propidium iodide double-staining based flow cytometery (reference value: 5.61%); format: functional
MDA-MB-436 [9] = experiment: Induction of apoptosis in human MDA-MB-436 cells assessed as late apoptotic cells at 0.1 uM after 96 hrs in presence of pancaspase inhibitor Z-VAD-FMK by Annexin V-FITC/propidium iodide double-staining based flow cytometery (reference value: 5.11%); format: functional
MDA-MB-436 [10] = experiment: Induction of apoptosis in human MDA-MB-436 cells assessed as early apoptotic cells at 1 uM after 96 hrs in presence of pancaspase inhibitor Z-VAD-FMK by Annexin V-FITC/propidium iodide double-staining based flow cytometery (reference value: 2.32%); format: functional
MDA-MB-436 [11] = experiment: Induction of apoptosis in human MDA-MB-436 cells assessed as late apoptotic cells at 1 uM after 96 hrs in presence of pancaspase inhibitor Z-VAD-FMK by Annexin V-FITC/propidium iodide double-staining based flow cytometery (reference value: 5.11%); format: functional
CAPAN-1 [12] = experiment: Antiproliferative activity against human Capan1 cells after 7 days by CCK8 or SRB assay; format: functional, cell-based; conditions: CAPAN-1, 168 h
MDA-MB-436 [13] = experiment: Antitumor activity against human MDA-MB-436 cells harboring BRCA1 mutant xenografted in nude BALB/cA mouse assessed as tumor growth inhibition at 50 mg/kg, po administered once daily for 21 consecutive days measured twice per week; format: functional; conditions: MDA-MB-436, po, read-out: TGI
Mus musculus [14] = experiment: Toxicity in nude BALB/cA mouse xenografted with human MDA-MB-436 cells harboring BRCA1 mutant assessed as mortality at 50 mg/kg, po administered once daily for 21 consecutive days measured twice per week; format: organism-based; conditions: in vivo
Mus musculus [15] = experiment: Toxicity in nude BALB/cA mouse xenografted with human Capan1 cells harboring BRCA2 mutant assessed as weight loss at 40 mg/kg, po administered once daily for 21 consecutive days measured twice per week; format: organism-based; conditions: in vivo
[16] = Half life in Sprague-Dawley rat at 5 mg/kg, iv by LC-MS/MS analysis; format: ADME, organism-based; conditions: in vivo
[17] = Half life in Sprague-Dawley rat at 10 mg/kg, po by LC-MS/MS analysis; format: ADME, organism-based; conditions: in vivo
[18] = AUC in Sprague-Dawley rat at 5 mg/kg, iv by LC-MS/MS analysis; format: ADME, organism-based; conditions: in vivo
[19] = AUC in Sprague-Dawley rat at 10 mg/kg, po by LC-MS/MS analysis; format: ADME, organism-based; conditions: in vivo
[20] = Stability in mouse plasma at 1 uM up to 60 mins by LC-MS/MS analysis; format: ADME, cell-free; conditions: read-out: Stability
[21] = Efflux ratio of apparent permeability in human Caco2 cells after 2 hrs by LC-MS/MS analysis; format: ADME, cell-based; conditions: Caco-2
[22] = Apparent permeability across apical to basolateral side in human Caco2 cells assessed as drug recovery at 4701.8 pmol after 2 hrs by LC-MS/MS analysis; format: ADME, cell-based; conditions: Caco-2, read-out: Drug recovery
[23] = Apparent permeability across basolateral to apical side in human Caco2 cells assessed as drug recovery at 16870 pmol after 2 hrs by LC-MS/MS analysis; format: ADME, cell-based; conditions: Caco-2, read-out: Drug recovery

Question: For `N#Cc1cccnc1N1CCN(C(=O)c2cc(Cc3n[nH]c(=O)c4ccccc34)cc(F)c2F)CC1`, which IC50 (MDA-MB-436 [1]) is on record?
Answer: The IC50 was 0.2 nM.

Question: What about the Activity (CAPAN-1 [2]) of the same compound?
Answer: Its Activity is 49.95%.

Question: And the Activity (CAPAN-1 [3])?
Answer: The Activity was 72.45%.

Question: And the Activity (CAPAN-1 [4])?
Answer: Its Activity is “Dose-dependent effect”.

Question: And the inhibition [5]?
Answer: The inhibition was “Active”.

Question: What about the inhibition [6] of the same compound?
Answer: Its inhibition is “Active”.

Question: And the Activity (MDA-MB-436 [7])?
Answer: Its Activity is 5.36%.

Question: What about the Activity (MDA-MB-436 [8]) of the same compound?
Answer: The Activity was 29.32%.

Question: What about the Activity (MDA-MB-436 [9]) of the same compound?
Answer: The Activity was 17.99%.

Question: And the Activity (MDA-MB-436 [10])?
Answer: The Activity was 6.61%.

Question: What about the Activity (MDA-MB-436 [11]) of the same compound?
Answer: Its Activity is 18.6%.

Question: What about the IC50 (CAPAN-1 [12]) of the same compound?
Answer: Its IC50 is 7.1 nM.

Question: What about the inhibition in vivo at 50 mg/kg (MDA-MB-436 [13]) of the same compound?
Answer: Its inhibition in vivo at 50 mg/kg is 94.2%.

Question: And the Activity (Mus musculus [14])?
Answer: The Activity was “Non-Toxic”.

Question: And the Activity (Mus musculus [15])?
Answer: The Activity was “Non-Toxic”.

Question: And the half-life [16]?
Answer: The half-life was 5.3 h.

Question: And the half-life [17]?
Answer: The half-life was 3 h.

Question: And the AUC [18]?
Answer: The AUC was 1380 ng·h/mL.

Question: What about the AUC [19] of the same compound?
Answer: Its AUC is 130 ng·h/mL.

Question: And the remaining at 1 h, 1 µM [20]?
Answer: Its remaining at 1 h, 1 µM is 105%.

Question: And the efflux ratio at 2 h [21]?
Answer: Its efflux ratio at 2 h is 5.

Question: And the recovery at 2 h [22]?
Answer: Its recovery at 2 h is 91.5%.

Question: What about the recovery at 2 h [23] of the same compound?
Answer: The recovery at 2 h was 109%.
